Experimental data: ChEMBL document CHEMBL1201862, “PubChem BioAssay data set” (2004)
The source made the active and inactive calls.

Tests used:
[1] = Luminescence Cell-Based Dose Response to Identify Activators of Luciferase Translation or Activity in H4-C Neuroglioblastoma Cells. [Related pubchem assays: 1829 (Project Summary), 1814 (Primary HTS)]; assay type: functional
H4 = test: Luminescence Cell-Based Dose Response HTS to Identify Activators of 5'UTR Stem-Loop Driven Prion Protein mRNA Translation in H4 Neuroglioblastoma Cells. [Related pubchem assays: 1829 (Project Summary), 1814 (Primary HTS)]; assay type: functional; details: Homo sapiens
[2] = Luminescence Cell-Based Dose Response HTS to Identify Activators of Luciferase Translation or Activity in H4 […] Cells. [Related pubchem assays: 1829 (Project Summary), 1814 (Primary HTS)]; assay type: functional
[3] = Luminescence Cell-Based Dose Response to Identify Activators of 5'UTR Stem-Loop Driven Prion Protein mRNA Translation in H4-C Neuroglioblastoma Cells. [Related pubchem assays: 1829 (Project Summary), 1814 (Primary HTS)]; assay type: functional
[4] = Luminescence Cell-Based Dose Confirmation to Identify Activators of 5'UTR Stem-Loop Driven Alpha-Synuclein mRNA Translation in H4 Neuroglioblastoma Cells. [Related pubchem assays: 1829 (Project Summary), 1814 (Primary HTS)]; assay type: functional
[5] = target: T1, High affinity choline transporter 1 (Homo sapiens, UniProt Q9GZV3); test: CHT inhibitors, dose response, cell-based, 5-point CRC, membrane potential dye (AID 504840); assay type: functional
T1 sequence (Q9GZV3 whole entry): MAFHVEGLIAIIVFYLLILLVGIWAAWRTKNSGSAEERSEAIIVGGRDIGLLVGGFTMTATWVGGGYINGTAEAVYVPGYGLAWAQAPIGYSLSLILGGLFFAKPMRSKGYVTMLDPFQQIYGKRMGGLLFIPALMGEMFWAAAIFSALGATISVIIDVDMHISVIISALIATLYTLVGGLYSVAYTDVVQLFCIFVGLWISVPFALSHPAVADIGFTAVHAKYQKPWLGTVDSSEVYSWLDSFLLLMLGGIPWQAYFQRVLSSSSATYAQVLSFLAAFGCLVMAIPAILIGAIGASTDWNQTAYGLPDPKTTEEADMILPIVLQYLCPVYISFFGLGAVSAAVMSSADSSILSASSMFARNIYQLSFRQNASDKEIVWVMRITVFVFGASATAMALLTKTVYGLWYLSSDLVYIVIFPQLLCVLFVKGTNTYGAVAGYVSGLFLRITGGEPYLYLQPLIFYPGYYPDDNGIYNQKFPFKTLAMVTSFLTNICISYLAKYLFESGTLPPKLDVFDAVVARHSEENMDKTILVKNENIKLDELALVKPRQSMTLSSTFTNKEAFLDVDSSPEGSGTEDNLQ

[6] = target: T2, DNA repair protein RAD52 homolog (Homo sapiens, UniProt P43351); assay type: functional, biochemical
T2 sequence (P43351 whole entry): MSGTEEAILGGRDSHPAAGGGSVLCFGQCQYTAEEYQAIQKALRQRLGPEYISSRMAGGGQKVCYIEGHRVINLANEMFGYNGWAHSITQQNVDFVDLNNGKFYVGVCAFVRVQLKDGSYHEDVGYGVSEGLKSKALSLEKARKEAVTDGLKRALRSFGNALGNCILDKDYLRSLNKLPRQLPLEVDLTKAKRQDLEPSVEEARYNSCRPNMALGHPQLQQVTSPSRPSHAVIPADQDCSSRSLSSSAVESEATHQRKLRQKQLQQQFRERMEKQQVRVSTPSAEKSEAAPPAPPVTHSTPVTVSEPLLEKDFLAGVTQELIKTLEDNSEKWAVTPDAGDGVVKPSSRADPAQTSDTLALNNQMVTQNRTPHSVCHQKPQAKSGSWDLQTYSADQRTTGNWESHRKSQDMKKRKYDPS

Nonstructural protein 1 = Nonstructural protein 1 (Influenza A virus, UniProt Q194T2); assay type: functional, Influenza A virus (A/California/07/2009(H1N1))
[7] = inhibitors of intracellular T. cruzi replication, confirmation, NIH3T3 host cells, beta-gal luminescence (AID 2044); assay type: functional, cell-based;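 also: intracellular parasites grown in NIH/3T3 mouse fibroblasts as host cells; luminescent beta-galactosidase reporter signal from transgenic T. cruzi replicating inside host cells; inhibitors lower the luminescence signal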
[8] = cytotoxicity toward NIH3T3 fibroblasts, dose response, counter-screen, cell-based, ATP luminescence, mouse fibroblasts (AID 2010); assay type: functional;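 also: cells exposed to compound for about 90 hours before reading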
[9] = target: T3, Long-chain-fatty-acid--AMP ligase FadD28 (Mycobacterium tuberculosis, UniProt P9WQ59); test: Fluorescence polarization aasay to screen for inhibitors that compete for the binding of FadD28 to a bisubstrate Measured in Biochemical System Using Plate Reader - 2147-01_Inhibitor_Dose_CherryPick_Activity.; assay type: functional, Mycobacterium tuberculosis H37Rv
T3 sequence (P9WQ59 whole entry): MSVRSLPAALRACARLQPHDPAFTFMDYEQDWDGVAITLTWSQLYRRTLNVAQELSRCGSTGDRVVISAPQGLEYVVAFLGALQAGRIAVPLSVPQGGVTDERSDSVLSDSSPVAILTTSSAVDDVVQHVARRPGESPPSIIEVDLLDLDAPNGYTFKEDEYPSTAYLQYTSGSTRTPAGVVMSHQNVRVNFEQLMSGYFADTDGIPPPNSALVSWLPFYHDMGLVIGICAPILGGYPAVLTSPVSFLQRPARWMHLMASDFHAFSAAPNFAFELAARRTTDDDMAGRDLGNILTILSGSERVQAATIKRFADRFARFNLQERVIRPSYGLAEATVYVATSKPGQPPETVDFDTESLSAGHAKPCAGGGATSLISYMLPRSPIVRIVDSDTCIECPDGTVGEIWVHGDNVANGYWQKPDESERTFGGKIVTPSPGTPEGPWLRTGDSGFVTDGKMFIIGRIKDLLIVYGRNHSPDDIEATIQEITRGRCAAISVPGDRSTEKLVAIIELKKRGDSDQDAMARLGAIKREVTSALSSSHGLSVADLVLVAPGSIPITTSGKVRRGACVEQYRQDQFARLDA

[10] = target: T4, Heat shock factor protein 1 (Mus musculus, UniProt P38532); test: inhibition of MG132-induced HSE-luciferase signal, confirmation, cell-based, NIH3T3, luminescence, dose retest (AID 2382); assay type: functional;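 also: NIH3T3 fibroblasts with HSF1-driven luciferase reporter stressed by proteasome inhibitor MG132; luminescence from HSF1-driven luciferase expression after 8 hours of MG132 stress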
T4 sequence (P38532 whole entry): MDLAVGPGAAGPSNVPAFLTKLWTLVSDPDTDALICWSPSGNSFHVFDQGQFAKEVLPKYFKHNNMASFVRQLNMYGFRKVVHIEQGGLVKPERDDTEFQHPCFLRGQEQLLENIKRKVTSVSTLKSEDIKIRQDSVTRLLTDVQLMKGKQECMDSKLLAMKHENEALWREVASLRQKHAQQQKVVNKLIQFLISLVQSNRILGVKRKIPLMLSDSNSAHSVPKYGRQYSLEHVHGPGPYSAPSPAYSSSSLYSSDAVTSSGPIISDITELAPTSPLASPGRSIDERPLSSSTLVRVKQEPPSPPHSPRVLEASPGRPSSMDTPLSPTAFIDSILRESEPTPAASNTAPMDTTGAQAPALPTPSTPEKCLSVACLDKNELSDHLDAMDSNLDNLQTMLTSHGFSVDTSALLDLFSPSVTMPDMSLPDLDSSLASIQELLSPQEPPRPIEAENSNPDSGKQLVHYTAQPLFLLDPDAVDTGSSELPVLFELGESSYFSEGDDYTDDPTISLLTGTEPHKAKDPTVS

[11] = target: Induced myeloid leukemia cell differentiation protein Mcl-1 (Homo sapiens, UniProt Q07820); assay type: functional
Large T antigen = Large T antigen (Simian virus 40, UniProt P03070); assay type: functional, Betapolyomavirus macacae;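 also: Confirmatory-stage PubChem screen for compounds that inhibit SV40 T antigen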
[12] = growth suppression of PTEN-null colon cells, dose response, cell-based, HCT116 PTEN knockout (AID 1047); assay type: functional;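 also: HCT116 colon tumor cells with PTEN knocked out; cells exposed to compound for 60 hours before readout; potency for loss of cell viability measured by luminescence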
[13] = inhibitors of HIV Env-driven cell fusion, dose response, cherry-pick (AID 652057); assay type: functional, cell-based
[14] = off-target signal loss in HeLa-CEM21 co-culture – HeLa F-luc CTL cells, cherry-picked, counter-screen for HIV-1 Env fusion inhibitor project, dose response (AID 652040); assay type: functional, cell-based;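 also: potency for signal decrease marking cytotoxic or nonspecific inhibition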
[15] = ZM109 Env clade C HIV-1 fusion inhibitors, dose response, HeLa effector, CEM target cells, luciferase, cherry-pick (AID 652058); assay type: functional, cell-based
[16] = growth suppression of beta-catenin-knockout colon cells, dose response, cell-based, HCT116, human colon tumor (AID 1045); assay type: functional;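 also: HCT116 colon tumor cells with beta catenin knocked out; cells exposed to compound for 60 hours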
[17] = inhibitors of clade B AD8 Env fusion, dose response, cell-based, cherry-pick (AID 652062); assay type: functional;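 also: luciferase signal from cell-cell fusion driven by HIV-1 clade B AD8 Env; potency is for inhibitors of fusion seen as a drop in luminescence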

Sequence of Nonstructural protein 1 (Q194T2 whole entry): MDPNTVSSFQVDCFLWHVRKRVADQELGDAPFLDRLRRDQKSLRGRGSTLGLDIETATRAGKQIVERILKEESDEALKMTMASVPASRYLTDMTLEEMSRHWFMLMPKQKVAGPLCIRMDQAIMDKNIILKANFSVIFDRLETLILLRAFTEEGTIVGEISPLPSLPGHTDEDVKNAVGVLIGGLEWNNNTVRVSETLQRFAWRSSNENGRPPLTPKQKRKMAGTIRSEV
Sequence of Induced myeloid leukemia cell differentiation protein Mcl-1 (Q07820 whole entry): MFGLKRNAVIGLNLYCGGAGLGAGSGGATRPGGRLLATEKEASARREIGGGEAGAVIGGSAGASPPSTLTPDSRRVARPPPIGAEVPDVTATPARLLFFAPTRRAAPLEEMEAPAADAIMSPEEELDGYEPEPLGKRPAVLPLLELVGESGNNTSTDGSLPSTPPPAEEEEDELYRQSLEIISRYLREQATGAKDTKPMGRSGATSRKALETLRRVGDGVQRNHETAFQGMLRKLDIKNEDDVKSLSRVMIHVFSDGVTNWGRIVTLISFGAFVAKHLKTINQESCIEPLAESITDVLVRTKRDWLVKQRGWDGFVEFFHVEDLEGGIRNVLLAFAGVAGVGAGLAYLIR
Sequence of Large T antigen (P03070 whole entry): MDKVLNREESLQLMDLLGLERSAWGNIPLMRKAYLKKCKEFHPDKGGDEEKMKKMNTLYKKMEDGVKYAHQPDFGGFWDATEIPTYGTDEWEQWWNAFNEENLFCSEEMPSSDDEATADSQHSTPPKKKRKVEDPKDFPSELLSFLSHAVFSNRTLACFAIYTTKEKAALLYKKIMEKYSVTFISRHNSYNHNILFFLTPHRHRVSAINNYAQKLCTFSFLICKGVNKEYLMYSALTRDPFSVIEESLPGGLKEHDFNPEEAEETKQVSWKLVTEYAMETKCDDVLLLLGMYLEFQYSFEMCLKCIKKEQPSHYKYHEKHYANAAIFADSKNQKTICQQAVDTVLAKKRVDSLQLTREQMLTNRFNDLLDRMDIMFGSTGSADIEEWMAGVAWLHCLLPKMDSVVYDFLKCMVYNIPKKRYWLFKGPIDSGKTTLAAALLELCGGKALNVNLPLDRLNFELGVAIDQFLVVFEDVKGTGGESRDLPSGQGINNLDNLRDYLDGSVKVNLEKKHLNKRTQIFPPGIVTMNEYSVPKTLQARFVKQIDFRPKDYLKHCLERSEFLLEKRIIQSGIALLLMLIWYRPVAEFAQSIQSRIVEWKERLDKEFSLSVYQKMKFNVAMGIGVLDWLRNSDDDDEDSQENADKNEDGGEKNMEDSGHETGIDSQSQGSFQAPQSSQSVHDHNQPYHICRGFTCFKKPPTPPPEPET

COc1ccc(N=C(S)Nc2cc(C)ccn2)c(OC)c1
EC50 [1]: > 12 µM (not active)
EC50 (H4): > 120 µM (not active)
EC50 [2]: < 0.1 µM (inconclusive)
EC50 [3]: 0.393 µM (active)
EC50 [4]: 0.256 µM (active)

O=C(/C=C/c1cn(-c2ccccc2)nc1-c1ccc2c(c1)OCCO2)NCCCN1CCOCC1
IC50 [5]: 20 µM (active)
AC50 [6]: 16.1 µM (active)

CCOc1cccc(=NC2CCCCC2)c2c(C)[nH]c(C)c12
IC50 (Nonstructural protein 1): 68.8 µM (active)
AC50 [6]: 3.49 µM (active)

COc1ccc(N2CCc3c(C)nc4c(OC)cc(OC)cc4c32)cc1
EC50 [7]: 0.97 µM (active)
EC50 [8]: 36.5 µM (active)
AC50 [6]: 3.96 µM (active)

CCS(=O)(=O)c1nc(S(=O)(=O)c2ccc(C)cc2)c(N2CC(C)OC(C)C2)s1 (stereo unspecified)
EC50 [1]: > 12 µM (not active)
EC50 (H4): > 120 µM (not active)
EC50 [2]: < 0.1 µM (active)
EC50 [3]: > 12 µM (not active)
EC50 [4]: 0.81 µM (active)

COc1cccc(NC(=O)Cn2c(=O)oc3cc(S(=O)(=O)N4CCCC4)ccc32)c1
AC50 [9]: 44.5 µM (active)
EC50 [10]: > 195 µM (not active)

O=C(NCc1ccccc1)c1cnc2cc3c(cc2c1O)OCCO3
EC50 [1]: 0.334 µM (active)
EC50 (H4): 0.282 µM (active)
EC50 [2]: < 0.1 µM (active)
EC50 [3]: 0.421 µM (active)
EC50 [4]: 0.2 µM (active)

CN(C)c1ccc(Nc2nc(N)c([N+](=O)[O-])c(N3CCOCC3)n2)cc1
IC50 [11]: 0.8 µM (active)
IC50 (Large T antigen): 3.84 µM (active)

Nc1c(S(=O)(=O)c2cccs2)c2nc3ccccc3nc2n1CCc1ccccc1
EC50 [12]: 27 µM (active)
AC50 [13]: 9.23 µM (active)
AC50 [14]: 12.7 µM (active)
AC50 [15]: 9.26 µM (active)
EC50 [16]: 30 µM (active)

COc1ccc(CN2CCC(C)(Oc3ccc4c(c3)OCO4)C2)c2ccccc12 (stereo unspecified)
AC50 [13]: 6.46 µM (active)
AC50 [14]: 12.2 µM (active)
AC50 [15]: 10.1 µM (active)
AC50 [17]: 10.1 µM (active)

C[C@H]1CN([C@@H](C)CO)C(=O)Cc2cc(NC(=O)Cc3cn(C)c4ccccc34)ccc2O[C@H]1CN(C)S(=O)(=O)c1ccccc1
AC50 [13]: 12.7 µM (active)
AC50 [15]: 9.19 µM (active)
AC50 [17]: 23.5 µM (active)

CCc1nc2ccc(C(=O)NCCN3CCNC3=O)cn2c1N(CC)Cc1cccc(Br)c1
AC50 [13]: 1.18 µM (active)
AC50 [14]: 1.85 µM (active)
AC50 [15]: 1.74 µM (active)
AC50 [17]: 3.08 µM (active)

CN(C[C@@H](CC1CCCCC1)N(C[C@H](Cc1ccccc1)N(CCc1ccccc1)N=O)N=O)N=O
AC50 [13]: 5.14 µM (active)
AC50 [14]: 6.56 µM (active)
AC50 [15]: 8.38 µM (active)
AC50 [17]: 42.9 µM (active)

O=C(N/N=C/c1ccc2c(c1)OCO2)c1ccc(Br)o1
EC50 [1]: 0.433 µM (active)
EC50 (H4): 18.6 µM (inconclusive)
EC50 [2]: < 0.1 µM (inconclusive)
EC50 [3]: 0.855 µM (active)
EC50 [4]: 0.371 µM (active)
